Results taken from article PMC8771711, “Synthesis of Lasalocid-Based Bioconjugates and Evaluation of Their Anticancer Activity” (ACS Omega, 2022).

Experiments:
[1] = system: SW480, human primary colon cancer cell line; assay: MTT assay, cytotoxicity in SW480; format: cell-based; conditions: for IC50: MTT, 72 h, mean ± SD; for SW480 SI (selectivity index): SI = IC50 HaCaT / IC50 SW480
Procedure: (§1) The human cell lines SW480 (primary colon cancer), SW620 (lymph node metastatic colon cancer from the same patient as primary cancer cells), PC3 (metastatic prostate cancer), and HaCaT (immortalized keratinocytes) were obtained from the American Type Culture Collection (ATCC, Rockville, USA). The SW480 and SW620 cells were grown in MEM (ThermoSci, USA), PC3 in RPMI 1640, and HaCaT in DMEM High Glucose (Biowest SAS, France) supplemented with 10% foetal bovine serum (FBS), HEPES (20 mM), and antibiotics (100 U mL^–1 of penicillin and 100 μg mL^–1 of streptomycin). The cells were incubated in a humidified incubator at 37 °C/5% CO2, until 80–90% confluence was reached.
(§2) The cell viability was assessed by using of MTT salt [3-(4,5-dimethylthiazol-2-yl)-2,5-diphenyltetrazolium bromide] converted by mitochondrial dehydrogenase, occurring in living cells. The cells were seeded in 96-well plates at a density of 1 × 10^4 cells per well and allowed to adhere for 24 h at 37 °C in a CO2 humidified incubator. Then, the medium was removed and a fresh medium with various concentrations of tested compounds (from 10 to 120 μM) was added. The untreated cells were used as the control.
(§3) After 72 h incubation, the medium was replaced with 200 μL per well of free serum medium containing 0.5 mg mL^–1 MTT and incubated for 4 h at 37 °C in a CO2 humidified incubator. Subsequently, the medium was removed and dimethyl sulfoxide with isopropanol (1:1) was added to dissolve the formazan crystals. The optical density was measured using a UVM 340 reader (ASYS Hitech GmbH, Austria) at a wavelength of 570 nm. The experiments were repeated three times. The cell viability was calculated as the percent of MTT reduced in treated cells versus control cells (untreated cells). The number of viable cells cultured without tested compounds was assumed as 100%. The decreased relative MTT level indicates decreased cell viability. The IC50 values were estimated using CompuSyn version 1.0.

[2] = system: PC3, human prostate cancer cell line; assay: MTT assay, cytotoxicity in PC3; format: cell-based; conditions: for IC50: MTT, 72 h, mean ± SD; for PC3 SI (selectivity index): SI = IC50 HaCaT / IC50 PC3
Procedure: as §1, §2, §3

[3] = system: SW620, human metastatic colon cancer cell line; assay: MTT assay, cytotoxicity in SW620; format: cell-based; conditions: for IC50: MTT, 72 h, mean ± SD; for SW620 SI (selectivity index): SI = IC50 HaCaT / IC50 SW620
Procedure: as §1, §2, §3

[4] = system: HaCaT, human immortalized keratinocyte cell line; assay: MTT assay, cytotoxicity in HaCaT; format: cell-based; conditions: 72 h, mean ± SD, nontumor cells
Procedure: as §1, §2, §3

PC3 cells = assay: Annexin V-FITC/PI binding assay (flow cytometry) in PC3; format: cell-based, human; conditions: IC50 concentration, 72 h
Procedure: The SW480, SW620, PC3, and HaCaT cells were cultured and harvested under the conditions mentioned in the Section 4.5 and seeded in 12-well plates (1 × 10^5 cells per well). […] The apoptotic effect was performed using the Annexin V-FITC/propidium iodide (PI) apoptosis assay kit (Becton Dickinson, Pharmingen), according to the manufacturer’s instructions, and analyzed by flow cytometry (Becton Dickinson). The cells which were Annexin V-FITC-positive and PI-negative were identified as early apoptotic and both Annexin V-FITC- and PI-positive as late apoptotic or necrotic. The experiment was repeated three times.

[5] = system: three cancer cell lines (SW480, SW620, PC3); assay: MTT assay, span over the three cancer cell lines; format: cell-based, human; conditions: for IC50: Homo sapiens, MTT, 72 h; for SI, span over three cancer cell lines: SI = IC50 HaCaT / IC50 cancer cell line
Procedure: as §1, §2, §3

| Structure (SMILES) | IC50 [1] [µM] | SW480 SI (selectivity index) [1] | IC50 [2] [µM] | PC3 SI (selectivity index) [2] | IC50 [3] [µM] | SW620 SI (selectivity index) [3] | IC50 [4] [µM] | IC50 ([1]; Homo sapiens, SW480) [µM] | IC50 ([2]; Homo sapiens) [µM] | IC50 ([3]; Homo sapiens, SW-620) [µM] | percentage of late apoptotic PC3 cells (PC3 cells) [%] | percentage of necrotic PC3 cells (PC3 cells) [%] | IC50 ([4]; Homo sapiens, HaCaT) [µM] | IC50 [5] [µM] | SI, span over three cancer cell lines [5] |
| --- | --- | --- | --- | --- | --- | --- | --- | --- | --- | --- | --- | --- | --- | --- | --- |
| O=C(CCCCCBr)[c-]1cccc1.[Fe+2].c1cc[cH-]c1 [FER, (6-bromo-1-oxohexyl)ferrocene, reference compound] | 61 ± 0.98 | 1.9 | 59 ± 0.78 | 1.9 | 55 ± 0.7 | 2.1 | 115 ± 0.95 |  |  |  |  |  |  |  |  |
| CC[C@@H](C(=O)[C@@H](C)[C@@H](O)[C@H](C)CCc1ccc(C)c(O)c1C(=O)OCCCCn1cc(F)c(=O)[nH]c1=O)[C@H]1O[C@](CC)([C@H]2CC[C@](O)(CC)[C@H](C)O2)C[C@@H]1C [Compound 8, LAS–5-Fluorouracil Conjugate] |  | 0.5 |  | 9.2 |  | 2.4 |  | 67 ± 1.2 | 3.6 ± 0.08 | 14 ± 1 | 33.16 | 34.88 | 33 ± 3.4 |  |  |
| C=C(C)[C@@H]1CC[C@]2(C(=O)OCCCCCCOC(=O)c3c(CC[C@@H](C)[C@H](O)[C@H](C)C(=O)[C@H](CC)[C@H]4O[C@](CC)([C@H]5CC[C@](O)(CC)[C@H](C)O5)C[C@@H]4C)ccc(C)c3O)CC[C@]3(C)[C@H](CC[C@@H]4[C@@]5(C)CC[C@H](O)C(C)(C)[C@@H]5CC[C@]43C)[C@@H]12 [Compound 6, LAS–Betulinic Acid Conjugate] |  | 0.05 |  | 0.1 |  | 0.4 |  | 320 ± 8.8 | 200 ± 1.8 | 40 ± 2.1 |  |  | 15 ± 0.59 |  |  |
| CC[C@@H](C(=O)[C@@H](C)[C@@H](O)[C@H](C)CCc1ccc(C)c(O)c1C(=O)OCCCCCCn1cc(F)c(=O)[nH]c1=O)[C@H]1O[C@](CC)([C@H]2CC[C@](O)(CC)[C@H](C)O2)C[C@@H]1C [Compound 9, LAS–5-Fluorouracil Conjugate] |  | 0.7 |  | 1.2 |  | 0.8 |  | 66 ± 2.5 | 36 ± 0.79 | 55 ± 1.5 |  |  | 44 ± 1.8 |  |  |
| O=c1[nH]cc(F)c(=O)[nH]1 [5FU, 5-fluorouracil, reference compound] |  | 1.2 |  | 4.7 |  | 1.3 |  | 43 ± 3.1 | 11 ± 0.97 | 39 ± 1.2 |  |  | 52 ± 1.6 |  |  |
| C=C(C)[C@@H]1CC[C@]2(C(=O)O)CC[C@]3(C)[C@H](CC[C@@H]4[C@@]5(C)CC[C@H](O)C(C)(C)[C@@H]5CC[C@]43C)[C@@H]12 [BET, betulinic acid, reference compound] |  | 1.0 |  | 1.5 |  | 1.7 |  | 105 ± 7 | 71 ± 5.9 | 65 ± 3.7 |  |  | 108 ± 1.3 |  |  |
| O=c1[nH]c(=O)n(CCCCCCBr)cc1F [Compound 2, 1-(6-Bromohexyl)-5-fluorouracil] |  | 2.2 |  | 73 |  | 6.2 |  | 103 ± 3.4 | 3.1 ± 0.15 | 36 ± 0.83 |  |  | 224 ± 2.8 |  |  |
| CC[C@@H](C(=O)[C@@H](C)[C@@H](O)[C@H](C)CCc1ccc(C)c(O)c1C(=O)OCCCCCCBr)[C@H]1O[C@](CC)([C@H]2CC[C@](O)(CC)[C@H](C)O2)C[C@@H]1C [Compound 5] |  | 1.2 |  | 2.8 |  | 1.5 |  | 42 ± 1.6 | 18 ± 0.98 | 34 ± 1.4 |  |  | 50 ± 0.34 |  |  |
| O=c1cc(CCl)occ1O [Compound 4] |  | 1.4 |  | 2.0 |  | 2.0 |  | 28 ± 1.8 | 20 ± 1.5 | 20 ± 2.6 |  |  | 39 ± 0.45 |  |  |
| O=c1cc(CO)occ1O [KOJ, kojic acid, reference compound] |  | 1.9 |  | 4.0 |  | 2.4 |  | 119 ± 2.8 | 56 ± 3.3 | 94 ± 4 |  |  | 225 ± 7.1 |  |  |
| CC[C@@H](C(=O)[C@@H](C)[C@@H](O)[C@H](C)CCc1ccc(C)c(O)c1C(=O)OCCOCCn1cc(F)c(=O)[nH]c1=O)[C@H]1O[C@](CC)([C@H]2CC[C@](O)(CC)[C@H](C)O2)C[C@@H]1C [Compound 10, LAS–5-Fluorouracil Conjugate] |  | 0.5 |  | 1.0 |  | 1.1 |  | 22 ± 2.2 | 12 ± 0.13 | 11 ± 1.4 |  |  | 12 ± 0.59 |  |  |
| O=c1[nH]c(=O)n([C@H]2C[C@H](O)[C@@H](CO)O2)cc1F [FLO, floxuridine, reference compound] |  | 2.4 |  | 2.7 |  | 4.3 |  | 16 ± 1.2 | 14 ± 0.57 | 8.8 ± 0.69 |  |  | 38 ± 0.72 |  |  |
| CC[C@@H](C(=O)[C@@H](C)[C@@H](O)[C@H](C)CCc1ccc(C)c(O)c1C(=O)O)[C@H]1O[C@](CC)([C@H]2CC[C@](O)(CC)[C@H](C)O2)C[C@@H]1C [LAS, lasalocid] |  | 2.2 |  | 11 |  | 2.6 |  | 7.2 ± 0.79 | 1.4 ± 0.05 | 6.1 ± 0.28 |  |  | 16 ± 1.9 | 1.4 to 7.2 | 2.2–11 |
| O=c1[nH]c(=O)n(CCCCBr)cc1F [Compound 1] |  | 5.0 |  | 0.6 |  | 2.4 |  | 36 ± 0.79 | 308 ± 5.2 | 75 ± 2.7 |  |  | 179 ± 4.3 |  |  |
| Nc1ccn([C@@H]2O[C@H](CO)[C@@H](O)C2(F)F)c(=O)n1 [GEM, gemcitabine, reference compound] |  | 1.3 |  | 11 |  | 0.4 |  | 1.2 ± 0.05 | 0.14 ± 0.02 | 3.4 ± 0.65 |  |  | 1.5 ± 0.05 | 0.14 to 3.4 | 0.4–11 |
| COc1cccc2c1C(=O)c1c(O)c3c(c(O)c1C2=O)C[C@@](O)(C(=O)CO)C[C@@H]3O[C@H]1C[C@H](N)[C@H](O)[C@H](C)O1 [DOX, doxorubicin, reference compound] |  |  |  |  |  |  |  | 0.75 ± 0.1 | 0.59 ± 0.02 |  |  |  | 0.29 ± 0.1 |  |  |
| CC[C@@H](C(=O)[C@@H](C)[C@@H](O)[C@H](C)CCc1ccc(C)c(O)c1C(=O)OC[C@H]1O[C@@H](n2cc(F)c(=O)[nH]c2=O)C[C@@H]1O)[C@H]1O[C@](CC)([C@H]2CC[C@](O)(CC)[C@H](C)O2)C[C@@H]1C [Compound 11, LAS–Floxuridine Conjugate] |  | 1.6 |  | 3.8 |  | 2.6 |  | 31 ± 1.2 | 13 ± 1.9 | 19 ± 2 |  |  | 50 ± 0.59 |  |  |
| O=c1[nH]c(=O)n(CCOCCBr)cc1F [Compound 3, 1-(2-(2-Bromoethoxy)ethyl)-5-fluorouracil] |  | 1.9 |  | 2.5 |  | 2.2 |  | 55 ± 3.5 | 42 ± 2.3 | 47 ± 3.8 |  |  | 104 ± 2.2 |  |  |
| BrCCC[P+](c1ccccc1)(c1ccccc1)c1ccccc1.[Br-] [TPP, (3-bromopropyl)triphenylphosphonium bromide, reference compound] |  | 0.6 |  | 0.8 |  | 0.7 |  | 46 ± 1.1 | 31 ± 0.98 | 39 ± 2.5 |  |  | 26 ± 0.96 |  |  |
